Test results from patent US12691086B2, “Methods of treating systemic sclerosis and idiopathic pulmonary fibrosis” (HORIZON THERAPEUTICS IRELAND DAC, priority 2022, dated 2026).
“Also recorded” adds a separate entry of the source.

Columns and labels:
[1] = Single-dose PK under fasted conditions in healthy adult subjects; format: in vivo, human; settings: for AUC(0-inf) / AUC(0-t) / Cmax / Tmax / half-life: human, plasma, oral
Method: (§1) The PK of Compound I and food effect were evaluated in an open-label study in healthy volunteers to inform the dose and dosing condition of the tablet formulations used in the clinical studies. Dose proportionality and food effect were evaluated using a 2-way, 2-period crossover design in two cohorts:150 mg and 300 mg single dose under fasting condition in Cohort 1 and 450 mg single dose under fasting and high-fat, high calorie meal condition in Cohort 2. Multiple-dose PK was evaluated using a 2-period, fixed sequence crossover design. Subjects received Compound I twice a day (BID) of 300 mg (Cohort 3) or 450 mg (Cohort 4) administered with low-fat meals in Period 1 and with high-fat meals in Period 2.
(§2) PK sample collections: For cohort 1 and 2, blood samples were collected at predose, 0.5, 1, 2, 3, 4, 6, 8, 12, 24, 36, 48, 72, 96 and 120 h post dose. For cohort 3 and 4, blood samples were collected at predose, 0.5, 1, 2, 4, 5, 12 hrs after the first dose on Day 1. After the last dose on Day 5, PK samples were taken at predose, 0.5, 1, 2, 4, 6, 12, 24, 36, 60, 84, 108 hr in Period 1 and predose, 0.5, 1, 2, 4, 6, 12 hours post last dose in Period 2.
(§3) Plasma concentrations of Compound I were determined using a validated high performance liquid chromatography-tandem mass spectrometry (HPLC MS/MS) method. The analytical range of Compound I were 250-50,000 ng/mL (high range) and […] (low range). Dose-proportionality of pharmacokinetic parameters were examined by analysis of variance (ANOVA) where the AUC0-last, AUC0-inf, and Cmax parameters were dose normalized. 90% confidence intervals (CIs) were derived by exponentiation of the CIs obtained for the difference between the treatment LSMs (Least square means). Dose proportionality was established if the 90% CI for the ratio of the geometric means for the dose-normalized parameters lay within the limits of (0.7, 1.43).

[2] = system: patients with early dcSSc; settings: Allanore et al. 2018, cited from earlier work
[3] = biological target: T1, organic anion transporter 3 (OAT3) (Homo sapiens, UniProt Q8TCC7); experiment: In vitro inhibition of organic anion transporter 3; format: in vitro ADME
T1 sequence (Q8TCC7 1-542): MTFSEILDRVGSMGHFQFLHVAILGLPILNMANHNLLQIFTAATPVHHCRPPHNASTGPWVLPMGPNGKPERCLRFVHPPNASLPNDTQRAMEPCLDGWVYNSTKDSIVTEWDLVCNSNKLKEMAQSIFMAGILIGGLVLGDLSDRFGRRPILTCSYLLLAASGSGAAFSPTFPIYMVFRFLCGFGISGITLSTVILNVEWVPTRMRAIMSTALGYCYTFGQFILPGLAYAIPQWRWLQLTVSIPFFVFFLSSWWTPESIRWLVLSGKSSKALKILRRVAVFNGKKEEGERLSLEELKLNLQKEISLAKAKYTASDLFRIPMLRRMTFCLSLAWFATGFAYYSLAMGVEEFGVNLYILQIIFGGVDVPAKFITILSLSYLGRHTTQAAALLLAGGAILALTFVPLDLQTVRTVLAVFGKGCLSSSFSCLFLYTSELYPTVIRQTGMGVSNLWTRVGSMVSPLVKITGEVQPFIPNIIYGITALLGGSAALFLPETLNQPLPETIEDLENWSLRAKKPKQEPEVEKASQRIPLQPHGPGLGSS

[4] = system: thrombosis; experiment: Acute models of coagulation and arterial thrombosis (two models in rats); format: in vivo
Source text: All these pathological events can be observed in SSc patients at different levels and further support the use of Compound I in these patients.

[5] = system: tight skin (Tsk-1) mice; experiment: Tight skin (Tsk-1) mice model of skin fibrosis; format: in vivo, mouse; settings: 30 mg/kg/day
Source text: Two models of skin fibrosis were used to evaluate the effect of Compound I in comparison with imatinib mesylate, used as a reference.

[6] = system: thrombosis; experiment: Model of thrombosis in mouse; format: in vivo; settings: one model in mouse
[7] = system: skin fibrosis; settings: mouse, in vivo; cited from earlier work
[8] = Multiple-dose (BID) PK at steady state with meals in healthy adult subjects; format: in vivo, human; settings: for t1/2 / half-life: median; for Ctrough / AUC / Cmax: steady state, mean (% CV); for AUC / Cmax / half-life: human, plasma, oral
Method: as §1, §2, §3

[9] = 300 mg BID, High-fat reduced calorie meal
[10] = 450 mg BID, High-fat high calorie meal
[11] = 300 mg, 300 mg BID, High-fat reduced calorie meal
[12] = 300 mg, 300 mg BID, Low-fat meal
[13] = 450 mg, 450 mg BID, High-fat high calorie meal
[14] = 450 mg, 450 mg BID, Low-fat meal

## COc1ccc(C(=O)NC2(C(=O)O)Cc3ccccc3C2)cc1OCCc1cccc(C)c1 [Compound I, 2-(4-methoxy-3-(3-methylphenethoxy)benzamido)-2,3-dihydro-1H-indene-2-carboxylic acid]
[1]; 150 to 450 mg, ANOVA
  dose proportionality of Cmax and AUC: less than dose-proportional
[1]; 150 mg single dose
  AUC(0-inf): 85.2 µg·h/mL
  AUC(0-t): 83.8 µg·h/mL
  Cmax: 11100 ng/mL
  Tmax: 3.5 h
  half-life: 21.8 h
[1]; 300 mg single dose
  AUC(0-inf): 120 µg·h/mL
  AUC(0-t): 118 µg·h/mL
  Cmax: 14500 ng/mL
  Tmax: 4 h
  half-life: 22.4 h
[1]; 450 mg single dose
  AUC(0-inf): 126 µg·h/mL
  AUC(0-t): 125 µg·h/mL
  Cmax: 15200 ng/mL
  Tmax: 3 h
  half-life: 18.3 h
[2]; 8-week double-blind period
  most frequent treatment-emergent adverse events (TEAEs): headache, diarrhea, nausea and fall
[2]; about 300 mg BID up to 24 weeks
  tolerability: well tolerated
[2]; about 300 mg BID
  clinical outcome measures (mRSS, HAQ-DI, SHAQ components, disease severity VAS, pruritus VAS): improved outcome measures; also recorded: numerical improvement
[2]
  target engagement: demonstrated target engagement
[3]
  inhibition of OAT3: inhibitor
[4]
  antithrombotic activity: moderate but significant antithrombotic activity; also recorded: demonstrated antithrombotic activity
[5]
  progression of skin fibrosis: inhibit the progression of skin fibrosis at a similar level than imatinib
[6]
  antithrombotic activity: demonstrated antithrombotic activity
[7]
  collagen content: reduced
  dermal thickening: reversed
  myofibroblast differentiation: significantly inhibited
[8]; [9]
  t1/2: 24.6 h
  Ctrough: 8627 (17%) ng/mL
[8]; 300 mg BID, Low-fat meal
  Ctrough: 6570 (13%) ng/mL
  half-life: 24.6 h
[8]; [10]
  t1/2: 27.7 h
  Ctrough: 11000 (23%) ng/mL
[8]; 450 mg BID, Low-fat meal
  Ctrough: 11000 (35%) ng/mL
  half-life: 27.7 h
[8]; [11]
  AUC: 166 µg·h/mL
  Cmax: 21700 ng/mL
[8]; [12]
  AUC: 129 µg·h/mL
  Cmax: 15900 ng/mL
[8]; [13]
  AUC: 204 µg·h/mL
  Cmax: 25800 ng/mL
[8]; [14]
  AUC: 163 µg·h/mL
  Cmax: 18400 ng/mL
